In patent US20130210765A1, “HYALURONIC ACID CONTAINING PHARMACEUTICAL OR VETERINARY COMPOSITIONS” (priority 2004, published 2013):

Tested on: lameness in horses
Experiment: double-blind placebo controlled crossover clinical trial on lameness in horses
Format: in vivo
Method: A crossover double blind and randomised study was designed to evaluate the efficacy of GLM lipid extract and HA alone and in combination in the treatment of lameness in horses.
Qualifying horses were initially examined and randomly assigned to receive four capsules of the placebo, or containing 50 mg GLM, or 50 mg Hyaluronate, or a mixture of 50 mg GLM and 50 mg Hyaluronate daily. Randomisation was computer generated in balanced blocks of the four treatment regimes and was crossover in design. No other medications were administered.
Evaluations of arthritic/musculoskeletal signs were carried out by a veterinarian and research assistant at wk 0 and every two weeks thereafter until the end of the trial. All parameters were scored on a scale of 1 to 10 according to severity and symptom improvement where 1 was severe disease symptomology and 10 indicated a disease free condition score and the results are shown in Table 1 and FIG. 4.
Each horse was scored for mobility (average of individual scores for lameness in walking, trotting, turning and any other musculoskeletal abnormality). Individual joints (neck, back, carpus, elbow and shoulder or tarsus, stifle and hip) of each limb were individually scored for degree of pain, swelling, crepitus and reduction in range of movement. Horses were also filmed for gait analysis and scored. Summation of the mobility score and all individual joint scores for each horse comprised their total arthritic/musculoskeletal score.

Hyaluronic acid [Hyaluronate]
mean clinical lameness score, Mid Phase 14 Days (four capsules daily, 14 days, scale 1 (severe) to 10 (disease free), Mean ± SEM): 2.6 ± 0.47^be | mean clinical lameness score, End Phase 28 Days (four capsules daily, 28 days, scale 1 (severe) to 10 (disease free), Mean ± SEM): 2.8 ± 0.48^ef | effect on degree of lameness / locomotory score (in words) (within 2 weeks / 14 days of treatment): little influence on it own
